Read-outs that look alike come from different tables or passages of the source.
Assays:
NaV1.8 [1] = target: T1, NaV1.8 (Homo sapiens, UniProt Q9Y5Y9); assay: Activity against NaV1.8 channel (Table 3); format: cell-based
Protocol: Compounds of the invention are useful as antagonists of voltage-gated sodium ion channels. Antagonist properties of test compounds were assessed as follows. Cells expressing the NaV of interest were placed into microtiter plates. After an incubation period, the cells were stained with fluorescent dyes sensitive to the transmembrane potential. The test compounds were added to the microtiter plate. The cells were stimulated with either a chemical or electrical means to evoke a NaV dependent membrane potential change from unblocked channels, which was detected and measured with trans-membrane potential-sensitive dyes. Antagonists were detected as a decreased membrane potential response to the stimulus. The optical membrane potential assay utilized voltage-sensitive FRET sensors described by Gonzalez and Tsien (See, Gonzalez, J. E. and R. Y. Tsien (1995) “Voltage sensing by fluorescence resonance energy transfer in single cells” Biophys J 69(4): 1272-80, and Gonzalez, J. E. and R. Y. Tsien (1997) “Improved indicators of cell membrane potential that use fluorescence resonance energy transfer” Chem Biol 4(4): 269-77) in combination with instrumentation for measuring fluorescence changes such as the Voltage/Ion Probe Reader (VIPR®) (See, Gonzalez, J. E., K. Oades, et al. (1999) “Cell-based assays and instrumentation for screening ion-channel targets” Drug Discov Today 4(9): 431-439).
24 hours before the assay on VIPR, CHO cells endogenously expressing a NaV1.2 type voltage-gated NaV are seeded in 96-well poly-lysine coated plates at 60,000 cells per well. Other subtypes are performed in an analogous mode in a cell line expressing the NaV of interest.
The following is an example of how NaV1.3 inhibition activity is measured using the optical membrane potential method#2. Other subtypes are performed in an analogous mode in a cell line expressing the NaV of interest.
Patch clamp electrophysiology was used to assess the efficacy and selectivity of sodium channel blockers in dorsal root ganglion neurons. Rat neurons were isolated from the dorsal root ganglions and maintained in culture for 2 to 10 days in the presence of NGF (50 ng/ml) (culture media consisted of NeurobasalA supplemented with B27, glutamine and antibiotics). Small diameter neurons (nociceptors, 8-12 μm in diameter) have been visually identified and probed with fine tip glass electrodes connected to an amplifier (Axon Instruments). The “voltage clamp” mode has been used to assess the compound's IC50 holding the cells at −60 mV. In addition, the “current clamp” mode has been employed to test the efficacy of the compounds in blocking action potential generation in response to current injections. The results of these experiments have contributed to the definition of the efficacy profile of the compounds.
TTX-resistant sodium currents were recorded from DRG somata using the whole-cell variation of the patch clamp technique. Recordings were made at room temperature (˜22° C.) with thick walled borosilicate glass electrodes (WPI; resistance 3-4 MΩ) using an Axopatch 200B amplifier (Axon Instruments). After establishing the whole-cell configuration, approximately 15 minutes were allowed for the pipette solution to equilibrate within the cell before beginning recording. Currents were lowpass filtered between 2-5 kHz and digitally sampled at 10 kHz. Series resistance was compensated 60-70% and was monitored continuously throughout the experiment. The liquid junction potential (−7 mV) between the intracellular pipette solution and the external recording solution was not accounted for in the data analysis. Test solutions were applied to the cells with a gravity driven fast perfusion system (SF-77; Warner Instruments).
Dose-response relationships were determined in voltage clamp mode by repeatedly depolarizing the cell from the experiment specific holding potential to a test potential of +10 mV once every 60 seconds. […]

[2] = neuropathic pain, modest efficacy; cited from earlier work
NaV1.8 [3] = target: T1, NaV1.8; details: read-out: TTX IC50; cited from earlier work

T1 sequence (Q9Y5Y9 whole entry, looked up): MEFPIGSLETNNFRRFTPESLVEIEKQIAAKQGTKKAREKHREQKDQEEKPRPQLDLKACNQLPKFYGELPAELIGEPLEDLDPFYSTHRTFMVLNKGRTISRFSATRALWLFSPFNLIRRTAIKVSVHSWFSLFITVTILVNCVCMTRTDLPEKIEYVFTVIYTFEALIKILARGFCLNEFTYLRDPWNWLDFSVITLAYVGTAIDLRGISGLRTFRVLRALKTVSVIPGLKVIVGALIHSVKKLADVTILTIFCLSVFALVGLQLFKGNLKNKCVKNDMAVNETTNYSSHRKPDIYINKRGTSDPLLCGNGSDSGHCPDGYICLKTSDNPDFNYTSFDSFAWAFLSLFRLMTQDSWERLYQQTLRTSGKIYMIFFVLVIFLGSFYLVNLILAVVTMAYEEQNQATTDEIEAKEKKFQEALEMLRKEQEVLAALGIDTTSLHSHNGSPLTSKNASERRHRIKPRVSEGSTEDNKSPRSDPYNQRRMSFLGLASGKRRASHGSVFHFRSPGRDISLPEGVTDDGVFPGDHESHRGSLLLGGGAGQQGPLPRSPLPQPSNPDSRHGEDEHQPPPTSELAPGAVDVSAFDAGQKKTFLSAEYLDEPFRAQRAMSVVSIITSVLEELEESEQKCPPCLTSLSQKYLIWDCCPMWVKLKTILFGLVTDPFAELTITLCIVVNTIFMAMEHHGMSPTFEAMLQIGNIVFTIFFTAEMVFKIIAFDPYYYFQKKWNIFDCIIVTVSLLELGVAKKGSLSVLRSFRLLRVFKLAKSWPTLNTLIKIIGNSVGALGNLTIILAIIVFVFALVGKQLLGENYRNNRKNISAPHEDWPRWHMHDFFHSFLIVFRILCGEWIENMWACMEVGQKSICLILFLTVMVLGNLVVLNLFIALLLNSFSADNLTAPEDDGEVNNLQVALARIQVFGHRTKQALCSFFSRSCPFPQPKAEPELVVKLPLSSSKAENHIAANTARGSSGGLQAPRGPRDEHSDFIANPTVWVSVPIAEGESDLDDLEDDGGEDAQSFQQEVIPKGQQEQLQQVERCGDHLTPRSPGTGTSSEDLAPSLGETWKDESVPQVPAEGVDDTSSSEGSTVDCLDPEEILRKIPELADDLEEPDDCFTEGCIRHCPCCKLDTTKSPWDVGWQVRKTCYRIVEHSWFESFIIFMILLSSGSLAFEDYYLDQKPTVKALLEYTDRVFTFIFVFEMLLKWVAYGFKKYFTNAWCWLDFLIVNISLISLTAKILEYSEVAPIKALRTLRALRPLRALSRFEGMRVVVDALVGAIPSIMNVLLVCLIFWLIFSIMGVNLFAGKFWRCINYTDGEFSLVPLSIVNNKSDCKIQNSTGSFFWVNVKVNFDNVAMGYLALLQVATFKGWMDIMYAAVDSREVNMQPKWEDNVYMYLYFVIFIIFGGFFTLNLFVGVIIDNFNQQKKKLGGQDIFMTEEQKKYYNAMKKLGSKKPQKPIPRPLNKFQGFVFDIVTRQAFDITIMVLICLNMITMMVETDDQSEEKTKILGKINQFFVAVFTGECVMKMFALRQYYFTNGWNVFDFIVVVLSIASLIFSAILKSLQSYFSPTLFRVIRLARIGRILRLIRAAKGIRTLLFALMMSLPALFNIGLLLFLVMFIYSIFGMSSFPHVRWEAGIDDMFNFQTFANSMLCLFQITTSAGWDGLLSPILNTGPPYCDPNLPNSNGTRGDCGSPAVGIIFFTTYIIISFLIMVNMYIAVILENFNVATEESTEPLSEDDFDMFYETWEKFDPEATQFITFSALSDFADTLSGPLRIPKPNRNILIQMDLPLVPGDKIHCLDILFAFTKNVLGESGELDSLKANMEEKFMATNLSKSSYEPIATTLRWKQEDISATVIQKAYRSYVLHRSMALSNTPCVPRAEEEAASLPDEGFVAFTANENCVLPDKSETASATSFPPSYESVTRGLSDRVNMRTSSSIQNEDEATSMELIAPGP

SMILES	IC50 (NaV1.8 [1]) [µM]	also measured
Oc1ccccc1-c1csc(N2CCCCC2)n1 [Compound 1]	10 to 20	
CC(C)COC(=O)N1CCN(c2nc(-c3ccccc3O)cs2)CC1 [Compound 2]	> 20	
COc1ccccc1-c1csc(N2CCN(C(=O)OC(C)(C)C)CC2)n1 [Compound 3]	10 to 20	
CCCCS(=O)(=O)N1CCN(c2nc(-c3ccccc3O)cs2)CC1 [Compound 4]	> 20	
O=C([C@@H]1CCCO1)N1CCN(c2nc(-c3ccccc3O)cs2)CC1 [Compound 5]	> 20	
CC(C)OC(=O)N1CCN(c2nc(-c3ccccc3O)cs2)CC1 [Compound 6]	> 20	
O=C(O[C@H]1CCOC1)N1CCN(c2nc(-c3ccccc3O)cs2)CC1 [Compound 7]	> 20	
COCCOC(=O)N1CCN(c2nc(-c3ccccc3O)cs2)CC1 [Compound 8]	> 20	
O=C(OCc1ccccc1)N1CCN(c2nc(-c3ccccc3F)cs2)CC1 [Compound 9, Benzyl 4-(4-(2-fluorophenyl)thiazol-2-yl)piperazine-1-carboxylate]	> 20	
CC(C)COC(=O)N1CCN(c2nc(-c3ccccc3F)cs2)CC1 [Compound 10, Isobutyl 4-(4-(2-fluorophenyl)thiazol-2-yl)piperazine-1-carboxylate]	> 20	
CC(C)(C)COC(=O)N1CCN(c2nc(-c3ccccc3F)cs2)CC1 [Compound 11]	> 20	
O=C(OC1CCOC1)N1CCN(c2nc(-c3ccccc3F)cs2)CC1 (stereo not shown) [Compound 12]	> 20	
COCCOC(=O)N1CCN(c2nc(-c3ccccc3F)cs2)CC1 [Compound 13]	> 20	
O=C([C@H]1CCCO1)N1CCN(c2nc(-c3ccccc3F)cs2)CC1 [Compound 14]	> 20	
CC(C)[C@@H](O)C(=O)NCC1CCN(c2nc(-c3ccccc3O)ns2)CC1 [Compound 15]	> 20	
CC(C)COC(=O)NC1CCN(c2nc(-c3ccccc3O)ns2)CC1 [Compound 16, Isobutyl 1-(3-(2-hydroxyphenyl)-1,2,4-thiadiazol-5-yl)piperidin-4-ylcarbamate]	> 20	
CC(C)COC(=O)N1CCN(c2nsc(-c3ccccc3O)n2)CC1 [Compound 17, Isobutyl 4-(5-(2-hydroxyphenyl)-1,2,4-thiadiazol-3-yl)piperazine-1-carboxylate]	> 20	
NCC1(CC(=O)O)CCCCC1 [Gabapentin]		patients in which it works [2]: 60%
NC1=N[C@H](O)[C@H]2[C@H]3O[C@]4(O)O[C@@H]([C@@H](O)[C@@]2(N1)[C@@H]4O)[C@]3(O)CO [TTX, tetrodotoxin]		IC50 (NaV1.8 [3]): > 50 µM

Reference: patent US8329702B2, “Heterocycles useful as modulators of ion channels” (Vertex Pharmaceuticals Incorporated, priority 2005, dated 2012)
